# Laboratory results taken from patent US8513234B2, “HIV integrase inhibitors” (Merck Sharp & Dohme Corp., priority 2008, dated 2013).
# Where two headings read alike, the source gives them in different places.
# What was measured:
# [1] = biological target: T1, recombinant integrase (HIV-1 integrase) (Human immunodeficiency virus type 1 group M subtype B, UniProt P04585); assay: HIV-1 integrase assay: strand transfer catalyzed by recombinant integrase; assay type: biochemical; details: strand transfer activity
# T1 construct: Assays for the strand transfer activity of integrase were conducted in accordance with WO 02/30930 for recombinant integrase
# Description: HIV-1 Integrase Assay: Strand Transfer Catalyzed by Recombinant Integrase
# Assays for the strand transfer activity of integrase were conducted in accordance with WO 02/30930 for recombinant integrase. […] For example, the compounds prepared in Examples 1 to 5 were tested in the integrase assay and found to have the IC50 values in Table B. (Compounds 6A and 6B were not tested in this assay.)
# Further description on conducting the assay using preassembled complexes is found in Wolfe, A. L. et al., J. Virol. 1996, 70: 1424-1432, Hazuda et al., J. Virol. 1997, 71: 7005-7011; Hazuda et al., Drug Design and Discovery 1997, 15: 17-24; and Hazuda et al., Science 2000, 287: 646-650.
# [2] = system: HIV-1; assay: Inhibition of acute HIV-1 infection of T-lymphoid cells (spread assay); assay type: cell-based
# Description: Assay for Inhibition of HIV-1 Replication
# Assays for the inhibition of acute HIV-1 infection of T-lymphoid cells were conducted in accordance with Vacca, J. P. et al, Proc. Natl. Acad. Sci. USA 1994, 91: 4096.
# [3] = system: wild type IIIB; assay: Single cycle infectivity assay in HeLa P4-2 cells, wild type virus; assay type: cell-based, HIV; details: single cycle infectivity, wild type IIIB, read-out: wild type IIIB IC50
# [4] = system: virus containing G140S/Q148H mutation in the integrase gene; details: k = IC50(mutant)/IC50(wild type)
# Description: (§1) An assay for measuring the inhibition of acute HIV infection with HeLa P4-2 cells in a single cycle infectivity assay was conducted using methods described in Joyce et al., J. Biol. Chem. 2002, 277: 45811, Hazuda et al., Science 2000, 287: 646, and Kimpton et al, J. Virol. 1992, 66: 2232. Proviral plasmids encoding viruses containing specific mutations in the integrase gene (N155H, Q148R, Y143R, E92Q, or G140S/Q148H) were generated by site-directed mutagenesis, and viruses were produced by transfecting 293T cells with the appropriate proviral plasmids.
# [5] = system: virus containing N155H mutation in the integrase gene; details: k = IC50(mutant)/IC50(wild type)
# Description: as §1
# [6] = system: virus containing Q148R mutation in the integrase gene; details: k = IC50(mutant)/IC50(wild type)
# Description: as §1
# [7] = system: virus containing Y143R mutation in the integrase gene; details: k = IC50(mutant)/IC50(wild type)
# Description: as §1
# [8] = Human immunodeficiency virus 1, IIIB, HeLaP4-2, HeLa P4-2 cells
SMILES,IC50 ([1]; read-out: IC50),IC95 (nM) in the presence of 10% FBS [2],"IC50 [3, 8]","Number of fold shift in IC50 versus wild type IIIB, G140S/Q148H [4]","Number of fold shift in IC50 versus wild type IIIB, N155H [5]","Number of fold shift in IC50 versus wild type IIIB, Q148R [6]",IC50 ([1]; IC50 (nM)),IC50 ([3]; HeLa P4-2 cells),"Number of fold shift in IC50 versus wild type IIIB, Y143R [7]"
"Cc1ccc(CNC(=O)c2nc3n(c(=O)c2O)[C@H](C)CCC[C@H]3N(C)C(=O)C(=O)N(C)C)cc1F (racemic) [Compound 3A, Racemic-trans-N-(2-{[(3-fluoro-4-methylbenzyl)amino]carbonyl}-3-hydroxy-6-methyl-4-oxo-4,6,7,8,9,10-hexahydropyrimido[1,2-a]azepin-10-yl)-N,N′,N′-trimethylethanediamide]",40 nM,18 nM,31 nM,4,1,1,–,–,–
"COC1(C)CCC(N(C)C(=O)C(=O)N(C)C)c2nc(C(=O)NCc3ccc(F)c(C)c3)c(O)c(=O)n2C1 (single isomer, unassigned) [Compound 2C, N-(2-{[(4-fluoro-3-methylbenzyl)amino]carbonyl}-3-hydroxy-7-methoxy-7-methyl-4-oxo-4,6,7,8,9,10-hexahydropyrimido[1,2-a]azepin-10-yl)-N,N′,N′-trimethylethanediamide]",–,9 nM,–,68,19,22,73 nM,8 nM,3
"COC1(C)CCC(N(C)C(=O)C(=O)N(C)C)c2nc(C(=O)NCc3ccc(F)c(C)c3)c(O)c(=O)n2C1 (single isomer, unassigned) [Compound 2D, N-(2-{[(4-fluoro-3-methylbenzyl)amino]carbonyl}-3-hydroxy-7-methoxy-7-methyl-4-oxo-4,6,7,8,9,10-hexahydropyrimido[1,2-a]azepin-10-yl)-N,N′,N′-trimethylethanediamide]",–,14 nM,–,4,2,1,46 nM,23 nM,2
"Cc1ccc(CNC(=O)c2nc3n(c(=O)c2O)C(C)CCCC3N(C)C(=O)C(=O)N(C)C)cc1F (single isomer, unassigned) [Compound 3B, Cis-N-(2-{[(3-fluoro-4-methylbenzyl)amino]carbonyl}-3-hydroxy-6-methyl-4-oxo-4,6,7,8,9,10-hexahydropyrimido[1,2-a]azepin-10-yl)-N,N′,N′-trimethylethanediamide]",–,41 nM,48 nM,2,1,1,44 nM,–,1
"CN(C)C(=O)C(=O)N(C)C1COCCn2c1nc(C(=O)NCc1ccc(F)cc1)c(O)c2=O (single isomer, unassigned; (+)) [Compound V, (+)N-(2-{[(4-fluorobenzyl)amino]carbonyl}-3-hydroxy-4-oxo-6,7,9,10-tetrahydro-4h-pyrimido[1,2-d][1,4]oxazepin-10-yl)-N,N′,N′-trimethylethanediamide, reference compound]",–,–,37 nM,>32,10,13,–,–,1
"CN(C)C(=O)C(=O)N(C)C1COCCn2c1nc(C(=O)NCc1ccc(F)cc1)c(O)c2=O (single isomer, unassigned; (-)) [Compound W, (−)N-(2-{[(4-fluorobenzyl)amino]carbonyl}-3-hydroxy-4-oxo-6,7,9,10-tetrahydro-4h-pyrimido[1,2-d][1,4]oxazepin-10-yl)-N,N′,N′-trimethylethanediamide, reference compound]",–,–,–,>73,29,67,–,26 nM,3
"Cc1cc(CNC(=O)c2nc3n(c(=O)c2O)CC(C)(C)CC[C@H]3N(C)C(=O)C(=O)N(C)C)ccc1F [Compound 1A, N-((10R)-2-{[(4-fluoro-3-methylbenzyl)amino]carbonyl}-3-hydroxy-7,7-dimethyl-4-oxo-4,6,7,8,9,10-hexahydropyrimido[1,2-a]azepin-10-yl)-N,N′,N′-trimethylethanediamide]",42 nM,12 nM,41 nM,9,1,2,–,–,1
"Cc1cc(CNC(=O)c2nc3n(c(=O)c2O)CC(C)(C)CC[C@@H]3N(C)C(=O)C(=O)N(C)C)ccc1F [Compound 1B, N-((10S)-2-{[(4-fluoro-3-methylbenzyl)amino]carbonyl}-3-hydroxy-7,7-dimethyl-4-oxo-4,6,7,8,9,10-hexahydropyrimido[1,2-a]azepin-10-yl)-N,N′,N′-trimethylethanediamide]",38 nM,10 nM,13 nM,34,14,12,–,–,1
"CO[C@@]1(C)CC[C@H](N(C)C(=O)C(=O)N(C)C)c2nc(C(=O)NCc3ccc(F)c(C)c3)c(O)c(=O)n2C1 [Compound 2B, N-((7S,10S)-2-{[(4-fluoro-3-methylbenzyl)amino]carbonyl}-3-hydroxy-7-methoxy-7-methyl-4-oxo-4,6,7,8,9,10-hexahydropyrimido[1,2-a]azepin-10-yl)-N,N′,N′-trimethylethanediamide]",–,9 nM,8 nM,190,24,24,41 nM,–,3
"Cc1cc(CNC(=O)c2nc3n(c(=O)c2O)[C@@H](C)COC[C@@H]3N(C)C(=O)C(=O)N(C)C)ccc1F [Compound 4B, N-((6S,10R)-2-{[(4-fluoro-3-methylbenzyl)amino]carbonyl}-3-hydroxy-6-methyl-4-oxo-6,7,9,10-tetrahydro-4H-pyrimido[1,2-d][1,4]oxazepin-10-yl)-N,N′,N′-trimethylethanediamide]",39 nM,7 nM,32 nM,20,2,3,–,–,2
"Cc1cc(CNC(=O)c2nc3n(c(=O)c2O)[C@H](C)COC[C@@H]3N(C)C(=O)C(=O)N(C)C)ccc1F [Compound 4C, N-((6R,10R)-2-{[(4-fluoro-3-methylbenzyl)amino]carbonyl}-3-hydroxy-6-methyl-4-oxo-6,7,9,10-tetrahydro-4H-pyrimido[1,2-d][1,4]oxazepin-10-yl)-N,N′,N′-trimethylethanediamide]",48 nM,10 nM,26 nM,11,3,3,–,–,1
"CCN(C(=O)C(=O)N(C)C)[C@H]1CC[C@H](OC)Cn2c1nc(C(=O)NCc1ccc(F)cc1)c(O)c2=O [Compound 6B, N-ethyl-N-((7S,10S)-2-{[(4-fluorobenzyl)amino]carbonyl}-3-hydroxy-7-methoxy-4-oxo-4,6,7,8,9,10-hexahydropyrimido[1,2-a]azepin-10-yl)-N,N-dimethylethanediamide]",–,14 nM,13 nM,>100,13,>100,–,–,>100
